Numbers after ± are expanded uncertainties.
Test: xn = mol fraction of the nth substance listed
Conditions: Liquid, Vibrating tube method

CC1CCCCC1 [methylcyclohexane] + CCO
mass density [kg/m3]
Conditions | 100 kPa | 5000 kPa | 10000 kPa | 15000 kPa | 20000 kPa | 25000 kPa | 30000 kPa | 35000 kPa | 40000 kPa | 45000 kPa
283.15 K, x2 = 0 | 777.6 ± 0.3 | 781.4 ± 0.4 | 785.2 ± 0.4 | 788.7 ± 0.5 | 792.1 ± 0.5 | 795.3 ± 0.6 | 798.5 ± 0.6 | 801.5 ± 0.7 | 804.4 ± 0.7 | 807.3 ± 0.7
283.15 K, x2 = 0.052 | 777.6 ± 0.3 | 781.4 ± 0.4 | 785.1 ± 0.4 | 788.7 ± 0.5 | 792.1 ± 0.5 | 795.4 ± 0.5 | 798.5 ± 0.6 | 801.6 ± 0.6 | 804.5 ± 0.7 | 807.4 ± 0.7
283.15 K, x2 = 0.125 | 777.7 ± 0.3 | 781.6 ± 0.3 | 785.3 ± 0.4 | 788.9 ± 0.4 | 792.4 ± 0.5 | 795.6 ± 0.5 | 798.8 ± 0.6 | 801.9 ± 0.6 | 804.8 ± 0.7 | 807.7 ± 0.7
283.15 K, x2 = 0.25 | 778.5 ± 0.3 | 782.4 ± 0.3 | 786.2 ± 0.4 | 789.8 ± 0.4 | 793.2 ± 0.5 | 796.6 ± 0.5 | 799.7 ± 0.5 | 802.8 ± 0.6 | 805.8 ± 0.6 | 808.7 ± 0.7
283.15 K, x2 = 0.375 | 779.8 ± 0.2 | 783.6 ± 0.3 | 787.4 ± 0.3 | 791.1 ± 0.4 | 794.6 ± 0.4 | 797.9 ± 0.5 | 801.1 ± 0.5 | 804.2 ± 0.6 | 807.2 ± 0.6 | 810.1 ± 0.6
283.15 K, x2 = 0.5 | 781.4 ± 0.2 | 785.3 ± 0.3 | 789.1 ± 0.3 | 792.8 ± 0.4 | 796.3 ± 0.4 | 799.6 ± 0.4 | 802.8 ± 0.5 | 806 ± 0.5 | 809 ± 0.6 | 811.9 ± 0.6
283.15 K, x2 = 0.625 | 783.5 ± 0.2 | 787.4 ± 0.2 | 791.3 ± 0.3 | 794.9 ± 0.3 | 798.5 ± 0.4 | 801.8 ± 0.4 | 805.1 ± 0.5 | 808.2 ± 0.5 | 811.3 ± 0.6 | 814.2 ± 0.6
283.15 K, x2 = 0.75 | 786.4 ± 0.2 | 790.4 ± 0.2 | 794.3 ± 0.3 | 797.9 ± 0.3 | 801.5 ± 0.4 | 804.9 ± 0.4 | 808.1 ± 0.4 | 811.3 ± 0.5 | 814.3 ± 0.5 | 817.2 ± 0.6
283.15 K, x2 = 0.875 | 790.9 ± 0.2 | 794.8 ± 0.2 | 798.7 ± 0.3 | 802.4 ± 0.3 | 805.9 ± 0.3 | 809.3 ± 0.4 | 812.6 ± 0.4 | 815.8 ± 0.5 | 818.8 ± 0.5 | 821.8 ± 0.6
293.15 K, x2 = 0 | 769 ± 0.3 | 773 ± 0.4 | 777 ± 0.4 | 780.7 ± 0.5 | 784.3 ± 0.5 | 787.8 ± 0.6 | 791.1 ± 0.6 | 794.2 ± 0.7 | 797.3 ± 0.7 | 800.2 ± 0.8
293.15 K, x2 = 0.052 | 768.8 ± 0.3 | 772.8 ± 0.4 | 776.8 ± 0.4 | 780.6 ± 0.5 | 784.2 ± 0.5 | 787.6 ± 0.6 | 790.9 ± 0.6 | 794.1 ± 0.7 | 797.2 ± 0.7 | 800.2 ± 0.7
293.15 K, x2 = 0.125 | 768.9 ± 0.3 | 772.9 ± 0.3 | 776.9 ± 0.4 | 780.7 ± 0.4 | 784.4 ± 0.5 | 787.8 ± 0.5 | 791.2 ± 0.6 | 794.4 ± 0.6 | 797.5 ± 0.7 | 800.5 ± 0.7
293.15 K, x2 = 0.25 | 769.6 ± 0.3 | 773.7 ± 0.3 | 777.8 ± 0.4 | 781.6 ± 0.4 | 785.2 ± 0.5 | 788.7 ± 0.5 | 792.1 ± 0.6 | 795.3 ± 0.6 | 798.4 ± 0.6 | 801.5 ± 0.7
293.15 K, x2 = 0.375 | 770.8 ± 0.2 | 774.9 ± 0.3 | 779 ± 0.3 | 782.8 ± 0.4 | 786.5 ± 0.4 | 790 ± 0.5 | 793.4 ± 0.5 | 796.7 ± 0.6 | 799.8 ± 0.6 | 802.8 ± 0.7
293.15 K, x2 = 0.5 | 772.5 ± 0.2 | 776.6 ± 0.3 | 780.7 ± 0.3 | 784.5 ± 0.4 | 788.2 ± 0.4 | 791.8 ± 0.5 | 795.2 ± 0.5 | 798.4 ± 0.5 | 801.6 ± 0.6 | 804.6 ± 0.6
293.15 K, x2 = 0.625 | 774.6 ± 0.2 | 778.8 ± 0.2 | 782.9 ± 0.3 | 786.8 ± 0.3 | 790.5 ± 0.4 | 794 ± 0.4 | 797.4 ± 0.5 | 800.7 ± 0.5 | 803.9 ± 0.6 | 806.9 ± 0.6
293.15 K, x2 = 0.75 | 777.7 ± 0.2 | 781.8 ± 0.2 | 785.9 ± 0.3 | 789.9 ± 0.3 | 793.6 ± 0.4 | 797.1 ± 0.4 | 800.5 ± 0.5 | 803.8 ± 0.5 | 807 ± 0.5 | 810 ± 0.6
293.15 K, x2 = 0.875 | 782.2 ± 0.2 | 786.4 ± 0.2 | 790.5 ± 0.3 | 794.4 ± 0.3 | 798.1 ± 0.4 | 801.7 ± 0.4 | 805.1 ± 0.4 | 808.4 ± 0.5 | 811.6 ± 0.5 | 814.6 ± 0.6
303.15 K, x2 = 0 | 760.4 ± 0.3 | 764.7 ± 0.4 | 768.9 ± 0.4 | 772.8 ± 0.5 | 776.6 ± 0.5 | 780.2 ± 0.6 | 783.7 ± 0.6 | 787 ± 0.7 | 790.2 ± 0.7 | 793.3 ± 0.8
303.15 K, x2 = 0.052 | 760.1 ± 0.3 | 764.4 ± 0.4 | 768.6 ± 0.4 | 772.6 ± 0.5 | 776.5 ± 0.5 | 780.1 ± 0.6 | 783.6 ± 0.6 | 786.9 ± 0.7 | 790.1 ± 0.7 | 793.2 ± 0.8
303.15 K, x2 = 0.125 | 760.1 ± 0.3 | 764.4 ± 0.3 | 768.6 ± 0.4 | 772.7 ± 0.4 | 776.5 ± 0.5 | 780.2 ± 0.6 | 783.6 ± 0.6 | 787 ± 0.6 | 790.3 ± 0.7 | 793.4 ± 0.7
303.15 K, x2 = 0.25 | 760.7 ± 0.3 | 765.1 ± 0.3 | 769.4 ± 0.4 | 773.4 ± 0.4 | 777.3 ± 0.5 | 781 ± 0.5 | 784.5 ± 0.6 | 787.9 ± 0.6 | 791.2 ± 0.7 | 794.3 ± 0.7
303.15 K, x2 = 0.375 | 761.9 ± 0.2 | 766.3 ± 0.3 | 770.6 ± 0.3 | 774.7 ± 0.4 | 778.6 ± 0.4 | 782.3 ± 0.5 | 785.8 ± 0.5 | 789.2 ± 0.6 | 792.5 ± 0.6 | 795.7 ± 0.7
303.15 K, x2 = 0.5 | 763.6 ± 0.2 | 768 ± 0.3 | 772.3 ± 0.3 | 776.4 ± 0.4 | 780.3 ± 0.4 | 784 ± 0.5 | 787.6 ± 0.5 | 791 ± 0.6 | 794.3 ± 0.6 | 797.4 ± 0.7
303.15 K, x2 = 0.625 | 765.8 ± 0.2 | 770.2 ± 0.3 | 774.5 ± 0.3 | 778.6 ± 0.4 | 782.5 ± 0.4 | 786.3 ± 0.5 | 789.9 ± 0.5 | 793.3 ± 0.5 | 796.6 ± 0.6 | 799.8 ± 0.6
303.15 K, x2 = 0.75 | 768.9 ± 0.2 | 773.3 ± 0.2 | 777.7 ± 0.3 | 781.8 ± 0.3 | 785.7 ± 0.4 | 789.4 ± 0.4 | 793.1 ± 0.5 | 796.5 ± 0.5 | 799.8 ± 0.6 | 803 ± 0.6
303.15 K, x2 = 0.875 | 773.5 ± 0.2 | 777.9 ± 0.2 | 782.3 ± 0.3 | 786.4 ± 0.3 | 790.3 ± 0.4 | 794 ± 0.4 | 797.6 ± 0.5 | 801.1 ± 0.5 | 804.4 ± 0.5 | 807.6 ± 0.6
313.15 K, x2 = 0 | 751.7 ± 0.3 | 756.2 ± 0.4 | 760.7 ± 0.4 | 764.8 ± 0.5 | 768.8 ± 0.5 | 772.7 ± 0.6 | 776.3 ± 0.6 | 779.8 ± 0.7 | 783.1 ± 0.7 | 786.4 ± 0.8
313.15 K, x2 = 0.052 | 751.1 ± 0.3 | 755.7 ± 0.4 | 760.1 ± 0.4 | 764.4 ± 0.5 | 768.4 ± 0.5 | 772.2 ± 0.6 | 775.9 ± 0.6 | 779.4 ± 0.7 | 782.8 ± 0.7 | 786.1 ± 0.8
313.15 K, x2 = 0.125 | 751 ± 0.3 | 755.7 ± 0.3 | 760.2 ± 0.4 | 764.5 ± 0.5 | 768.5 ± 0.5 | 772.4 ± 0.6 | 776.1 ± 0.6 | 779.6 ± 0.7 | 783 ± 0.7 | 786.3 ± 0.8
313.15 K, x2 = 0.25 | 751.6 ± 0.3 | 756.3 ± 0.3 | 760.9 ± 0.4 | 765.2 ± 0.4 | 769.3 ± 0.5 | 773.2 ± 0.5 | 776.9 ± 0.6 | 780.5 ± 0.6 | 783.9 ± 0.7 | 787.2 ± 0.7
313.15 K, x2 = 0.375 | 752.7 ± 0.2 | 757.4 ± 0.3 | 762 ± 0.3 | 766.4 ± 0.4 | 770.5 ± 0.5 | 774.4 ± 0.5 | 778.1 ± 0.6 | 781.7 ± 0.6 | 785.2 ± 0.7 | 788.5 ± 0.7
313.15 K, x2 = 0.5 | 754.4 ± 0.2 | 759.1 ± 0.3 | 763.7 ± 0.3 | 768.1 ± 0.4 | 772.2 ± 0.4 | 776.1 ± 0.5 | 779.9 ± 0.5 | 783.5 ± 0.6 | 786.9 ± 0.6 | –
313.15 K, x2 = 0.625 | 756.7 ± 0.2 | 761.4 ± 0.3 | 766 ± 0.3 | 770.4 ± 0.4 | 774.5 ± 0.4 | 778.4 ± 0.5 | 782.2 ± 0.5 | 785.8 ± 0.6 | 789.3 ± 0.6 | –
313.15 K, x2 = 0.75 | 759.9 ± 0.2 | 764.6 ± 0.2 | 769.2 ± 0.3 | 773.6 ± 0.3 | 777.7 ± 0.4 | 781.6 ± 0.4 | 785.4 ± 0.5 | 789 ± 0.5 | 792.5 ± 0.6 | –
313.15 K, x2 = 0.875 | 764.7 ± 0.2 | 769.3 ± 0.2 | 773.9 ± 0.3 | 778.3 ± 0.3 | 782.4 ± 0.4 | 786.3 ± 0.4 | 790.1 ± 0.5 | 793.7 ± 0.5 | 797.1 ± 0.6 | –
